Like-named read-outs stand apart in the source and are kept apart here.
How the values were obtained:
DAOY cells = test: Spheroid invasion assay (SIA), bFGF-induced collagen I invasion; type: cell-based, human; conditions: DAOY; bFGF-induced; 1, 5 and 10 µM
Method: 1000—2500 cells/well in 100 μl were seeded in 96 well Corning® Spheroid microplate (CLS4520, Sigma-Aldrich) or in cell-repellent 96 well microplate (650,790, Greiner Bio-one). SIA and analysis was performed as described before. In brief: After spheroid formation (24 – 72 h after seeding), 70 µl medium was removed and replaced with the collagen mixture (2.5 mg/ml Pure Col Collagen I (Advanced Biomatrix)), DMEM 1x (from 10 × stock, Sigma, D2429) and 0.4% Sodium bicarbonate (Sigma, S8761)), resulting in a final collagen concentration of 1.75 mg/ml. Embedded spheroids were stimulated with bFGF (100 ng/ml if not otherwise stated), HGF (30 ng /ml) or EGF (20 ng/ml) and distance of invaded cells quantified 24 – 48 h after embedding. Compounds and BGJ398 were added in Dimethylsulfoxid (DMSO) and corresponding DMSO concentrations were used in control samples.

[1] = Microsomal metabolic stability; type: in vitro ADME; conditions: human, pooled liver microsomes
Method: Pooled liver microsomes were purchased from Xenotech (H0500) and were stored according to manufacturer’s instructions prior to use. […] A minus co-factor control incubation was included for each compound tested where 0.1 M phosphate buffer pH 7.4 was added instead of NADPH. Two control compounds were included with each species. All incubations were performed singularly for each shortlisted hit. Each compound was incubated for 0, 5, 15, 30 and 45 min. The minus co-factor was incubated for 45 min only. The reactions were stopped by transferring incubate into acetonitrile at the appropriate time points in a 1:3 ratio. The termination plates were centrifuged at 3000 rpm for 20 min at 4 °C to precipitate the protein. Following protein precipitation, the supernatant were combined in cassette of up to 4 compounds, internal standard for MS analysis was added and samples were analyzed using LC–MS/MS. From a plot of In peak area ratio (compound peak area/internal standard peak area) against time, the gradient of the lines were determined. Subsequently, half-life and intrinsic clearance were calculated using the following equations. Eliminationrateconstant(k)=(-gradient)Half-life(t1/2)(min)=0.693/kIntrinsicclearance(CLint)(μl/min/mgprotein)=Vx0.693/t1/2 where V = Incubation volume (µl) / Microsomal protein (mg)

[2] = Semi-thermodynamic solubility; type: physicochemical; conditions: for solubility: Room Temp, Overnight, LC-MSMS
Method: In vitro ADME-T assays were performed by Cyprotex (Cyprotex Discovery, Cheshire, UK). […] The solution was agitated at ambient temperature overnight. The solutions were then centrifuged for 30 min at 3000 rpm at RT. The supernatant was removed and centrifuged for a further 30 min under the same conditions. An aliquot of the resulting supernatant was diluted in 50% methanol in water (containing an internal standard for MS analysis) prior to analysis by LC–MS/MS. […] These stocks were diluted in 50% methanol in water (containing an internal standard for MS analysis) prior to analysis by LC–MS/MS. The solubility of the shortlisted hits was calculated from a linear or quadratic fit of the standard curve.

Caco-2 cells = test: CaCo-2 permeability (bi-directional); conditions: Direction A2B
Method: (§1) Caco-2 cells obtained from the ATCC were used between passage numbers 40—60. Cells were seeded onto Millipore Multiscreen Transwell plates at 1 × 10^5 cells/cm^2. The cells were cultured in DMEM and media was changed every two or three days. On day 20, the permeability study was performed. […] Cells were then incubated with HBSS at the desired pH in both apical and basolateral compartments for 40 min to stabilize physiological parameters.
(§2) The fluorescent integrity marker lucifer yellow was also included in the dosing solution. Analytical standards were prepared from test compound DMSO dilutions and transferred to buffer, maintaining a 1% v/v DMSO concentration.
(§3) For assessment of A-B permeability, HBSS was removed from the apical compartment and replaced with test compound dosing solution. The apical compartment insert was then placed into a companion plate containing fresh buffer (containing 1% v/v DMSO). For assessment of B-A permeability, HBSS was removed from the companion plate and replaced with test compound dosing solution. Fresh buffer (containing 1% v/v DMSO) was added to the apical compartment insert, which was then placed into the companion plate.
(§4) Compound permeability was assessed in duplicate. Compounds of known permeability characteristics were run as controls on each assay plate.
(§5) Test and control compounds were quantified by LC–MS/MS cassette analysis using a 7-point calibration with appropriate dilution of the samples. The starting concentration (C0) was determined from the dosing solution and the experimental recovery calculated from C0 and both apical and basolateral compartment concentrations. The integrity of the monolayer throughout the experiment was checked by monitoring lucifer yellow permeation using fluorimetric analysis.
(§6) The permeability coefficient (Papp) for each compound was calculated from the following equation: Papp=dQ/dtC0×A where dQ/dt was the rate of permeation of the drug across the cells, C0 was the donor compartment concentration at time zero and A was the area of the cell monolayer. C0 was obtained from analysis of the dosing solution.
(§7) Efflux ratio (ER) was calculated from mean A-B and B-A data. This was derived from: ER=Papp(B-A)Papp(A-B)

[3] = CaCo-2 permeability (bi-directional); conditions: human
Method: as §1, §2, §3, §4, §5, §6, §7

[4] = Cell viability (cytotoxicity, MTT) using HepG2; type: cell-based, human; conditions: human, HepG2 cells, 72 h, summary sheet, read-out: MTT (AC50) Conc at which 50% of maximum efficacy is reached
Method: (§8) HepG2 human hepatocellular carcinoma cells were plated on 96-well tissue culture polystyrene plates for 24 h prior to dosing of the cells. The shortlisted hits were diluted in DMSO and serial dilutions are made 1% DMSO in growth media. Compounds at 8 concentrations in triplicate was then incubated for 72 h. Appropriate blanks and controls were run alongside the assay. One h prior to the end of the incubation period, the cells were loaded with MTT [yellow; 3-(4,5-dimethyl-2-thiazolyl)-2,5-diphenyl-2H-tetrazolium bromide], the plates were dried and re-solubilized using DMSO. The plates were then scanned at 570 nm using a plate reader.
(§9) The minimum effective concentration was determined from the lowest concentration whose mean value exceeds the significance level, provided either a clear dose–response relationship was observed, or at least two consecutive concentration points were above the significance level.

[5] = test system: HepG2 human hepatocellular carcinoma cells; test: Cell viability (cytotoxicity, MTT) using HepG2; type: cell-based
Method: as §8, §9

half-life at 1 µM ([1]; pH 7.4, liver microsomes, read-out: t1/2): 2.5 min
microsomal CLint at 1 µM ([1]; pH 7.4, read-out: Metabolic stability - Intrinsic clearance (CI)): 555 µL/min/mg
solubility ([2]; PBS, aqueous buffer, thermodynamic from solid, read-out: Mean Solubility): < 1 µM
solubility ([2]; PBS, aqueous buffer, thermodynamic from solid, read-out: Solubility Replicate 1): < 1 µM
solubility ([2]; PBS, aqueous buffer, thermodynamic from solid, read-out: Solubility Replicate 3): < 1 µM
solubility ([2]; PBS, aqueous buffer, thermodynamic from solid, read-out: Solubility Replicate 4): < 1 µM
solubility thermodynamic ([2]; aqueous buffer, thermodynamic from solid, PBS, overnight, summary sheet): < 1 µM
Solubility (class in words) ([2]; summary sheet): Very slightly
Papp B→A at 120 min, 10 μM ([3]; Caco-2, Mean Papp B-A, Caco-2, summary sheet): 7.53 ×10⁻⁶ cm/s
recovery at 120 min, 10 µM ([3]; Caco-2, pH 7.4, Mean % Recovery A2B, HBSS/HBSS, pH 7.4/7.4): 51.5%
recovery at 120 min, 10 µM ([3]; Caco-2, pH 7.4, Mean % Recovery B2A, HBSS/HBSS, pH 7.4/7.4): 14.4%
Papp B→A at 120 min, 10 μM ([3]; Caco-2, pH 7.4, Mean Papp B2A, HBSS/HBSS, pH 7.4/7.4): 7.53 ×10⁻⁶ cm/s
Papp B→A at 120 min, 10 μM ([3]; Caco-2, pH 7.4, Papp B2A Replicate 1, HBSS/HBSS, pH 7.4/7.4): 6.28 ×10⁻⁶ cm/s
Papp B→A at 120 min, 10 μM ([3]; Caco-2, pH 7.4, Papp B2A Replicate 2, HBSS/HBSS, pH 7.4/7.4): 8.78 ×10⁻⁶ cm/s
Structure (SMILES): Oc1cc(Cl)cc2c1NC(c1ccc(Cl)cc1)C1CC=CC21 (stereo not shown) [Compound 12]
functional activity in SIA (result in words) (DAOY cells): reduced invasion comparable to the parent compound 7
Comments: A2B permeation (result in words) (Caco-2 cells): Test compound not detectable in receiver compartments A2B. High C0 value A2B and B2A. Recovery low B2A. Possible solubility or binding issues. Accuracy of result questionable.
AC50 at 72 h [4]: 17.5 µM
MEC ([5]; 72h, 3 replicas, NR = No response (Summary sheet)): 9.85 µM
MTT (MEC) Minimum effective concentration ([5]; 72 h, summary sheet): 9.85 µM
